Measured values reported in patent US7459414B2, “Herbicides” (Syngenta Crop Protection, Inc., priority 2002, dated 2008).

Key:
Assay type in all cases: in vivo
Avena (Ave) [1] = assay: Example B4 post-emergence herbicidal action, MERGE oil additive 0.7% (Table B4); parameters: key: 1=total damage; 9=no action; conditions: 500 g of active substance per hectare; applied at 3- to 6-leaf stage; MERGE oil additive 0.7% by weight of the spray mixture; evaluation 3 weeks after application; scale of nine ratings
Method: (§1) Monocotyledonous and dicotyledonous weeds are grown in standard soil in plastics pots under greenhouse conditions. The test substances are applied to the test plants at the 3- to 6-leaf stage. The test substances are applied at a rate of application of 500 g of active substance per hectare in the form of an aqueous suspension (prepared from a 25% wettable powder (Example F3, b)) or in the form of an emulsion (prepared from a 25% emulsifiable concentrate (Example F1, c)) (500 liters of water/ha). The evaluation is carried out 3 weeks after application, using a scale of nine ratings (1=total damage, 9=no action). Ratings of from 1 to 4 (especially from 1 to 3) indicate good to very good herbicidal action. Herbicidal Action After the Emergence of the Plants (Post-emergence Action) of Compounds of the Present Invention (for Description See Example B2) Test plants: Avena (Ave), Lolium (Lol), Setaria (Set).

Lolium (Lol) [2] = assay: as above; parameters: key: 1=total damage; 9=no action; conditions: 500 g of active substance per hectare; applied at 3- to 6-leaf stage; MERGE oil additive 0.7% by weight of the spray mixture; evaluation 3 weeks after application; scale of nine ratings
Method: as §1

Setaria (Set) [3] = assay: as above; parameters: key: 1=total damage; 9=no action; conditions: 500 g of active substance per hectare; applied at 3- to 6-leaf stage; MERGE oil additive 0.7% by weight of the spray mixture; evaluation 3 weeks after application; scale of nine ratings
Method: as §1

Avena (Ave) [4] = assay: Example B3 pre-emergence herbicidal action, MERGE oil additive 0.7% (Table B3); parameters: key: 1=total damage; 9=no action; conditions: 500 g of active substance/ha; MERGE oil additive 0.7% by weight of the spray mixture; evaluation 3 weeks after application; scale of nine ratings
Method: (§2) Monocotyledonous and dicotyledonous weeds are sown in standard soil in plastics pots. Immediately after sowing, the test substances are applied in the form of an aqueous suspension (prepared from a 25% wettable powder (Example F3, b)) or in the form of an emulsion (prepared from a 25% emulsifiable concentrate (Example F1, c)) (500 liters of water/ha). The rate of application is 500 g of active substance/ha. The test plants are then grown in the greenhouse under optimum conditions. The evaluation is carried out 3 weeks after application, sing a scale of nine ratings (1=total damage, 9=no action). Ratings of from 1 to 4 (especially from 1 to 3) indicate good to very good herbicidal action. Test plants: Avena (Ave), Lolium (Lol), Setaria (Set).

Lolium (Lol) [5] = assay: as above; parameters: key: 1=total damage; 9=no action; conditions: 500 g of active substance/ha; MERGE oil additive 0.7% by weight of the spray mixture; evaluation 3 weeks after application; scale of nine ratings
Method: as §2

Setaria (Set) [6] = assay: as above; parameters: key: 1=total damage; 9=no action; conditions: 500 g of active substance/ha; MERGE oil additive 0.7% by weight of the spray mixture; evaluation 3 weeks after application; scale of nine ratings
Method: as §2

Alopecurus (Alo) [7] = assay: Example B1 pre-emergence herbicidal action (comparison test); parameters: key: 1=total damage; 9=no action; conditions: 500 g of active ingredient/ha; 3 weeks after application; scale of nine ratings, 1 to 4 = good to very good action
Method: (§3) Monocotyledonous and dicotyledonous weeds are sown in plastics pots in standard soil. Immediately after sowing, the test substances are applied in the form of an aqueous suspension (prepared from a 25% wettable powder (Example F3, b)) or in the form of an emulsion (prepared from a 25% emulsifiable concentrate (Example F1, c)) (500 liters of water/ha). The rate of application is 500 g of active substance/ha. The test plants are then grown in the greenhouse under optimum conditions. The evaluation is carried out 3 weeks after application, using a scale of nine ratings (1=total damage, 9=no action). Ratings of from 1 to 4 (especially from 1 to 3) indicate good to very good herbicidal action. Test plants: Alopecurus (Alo), Avena (Ave), Lolium (Lol), Setaria (Set), Panicum (Pan), Sorghum (Sor), Digitaria (Dig), Echinochloa (Ech) and Brachiaria (Bra).

Avena (Ave) [8] = assay: as above; parameters: key: 1=total damage; 9=no action; conditions: 500 g of active ingredient/ha; 3 weeks after application; scale of nine ratings, 1 to 4 = good to very good action
Method: as §3

Brachiaria (Bra) [9] = assay: as above; parameters: key: 1=total damage; 9=no action; conditions: 500 g of active ingredient/ha; 3 weeks after application; scale of nine ratings, 1 to 4 = good to very good action
Method: as §3

Echinochloa (Ech) = assay: as above; parameters: key: 1=total damage; 9=no action; conditions: 500 g of active ingredient/ha; 3 weeks after application; scale of nine ratings, 1 to 4 = good to very good action
Method: as §3

Lolium (Lol) [10] = assay: as above; parameters: key: 1=total damage; 9=no action; conditions: 500 g of active ingredient/ha; 3 weeks after application; scale of nine ratings, 1 to 4 = good to very good action
Method: as §3

Panicum (Pan) [11] = assay: as above; parameters: key: 1=total damage; 9=no action; conditions: 500 g of active ingredient/ha; 3 weeks after application; scale of nine ratings, 1 to 4 = good to very good action
Method: as §3

Setaria (Set) [12] = assay: as above; parameters: key: 1=total damage; 9=no action; conditions: 500 g of active ingredient/ha; 3 weeks after application; scale of nine ratings, 1 to 4 = good to very good action
Method: as §3

Sorghum (Sor) [13] = assay: as above; parameters: key: 1=total damage; 9=no action; conditions: 500 g of active ingredient/ha; 3 weeks after application; scale of nine ratings, 1 to 4 = good to very good action
Method: as §3

Digitaria (Dig) [14] = assay: as above; conditions: 500 g of active ingredient/ha; 3 weeks after application; scale of nine ratings, 1 to 4 = good to very good action
Method: as §3

Alopecurus (Alo) [15] = assay: Example B2 post-emergence herbicidal action (comparison test); parameters: key: 1=total damage; 9=no action; conditions: 250 g of active ingredient/ha; 3- to 6-leaf stage; 3 weeks after application; scale of nine ratings, 1 to 4 = good to very good action
Method: (§4) Monocotyledonous and dicotyledonous weeds are grown in standard soil in plastics pots under greenhouse conditions. The test substances are applied to the test plants at the 3- to 6-leaf stage. […] suspension (prepared from a 25% wettable powder (Example F3, b)) or in the form of an emulsion (prepared from a 25% emulsifiable concentrate (Example F1, c)) (500 liters of water/ha). The evaluation is carried out 3 weeks after application, using a scale of nine ratings (1=total damage, 9=no action). Ratings of from 1 to 4 (especially from 1 to 3) indicate good to very good herbicidal action. Test plants: Alopecurus (Alo), Avena (Ave), Lolium (Lol), Setaria (Set), Panicum (Pan), Sorghum (Sor), Digitaria (Dig), Echinocloa (Ech) and Brachiaria (Bra).

Avena (Ave) [16] = assay: as above; parameters: key: 1=total damage; 9=no action; conditions: 250 g of active ingredient/ha; 3- to 6-leaf stage; 3 weeks after application; scale of nine ratings, 1 to 4 = good to very good action
Method: as §4

Brachiaria (Bra) [17] = assay: as above; parameters: key: 1=total damage; 9=no action; conditions: 250 g of active ingredient/ha; 3- to 6-leaf stage; 3 weeks after application; scale of nine ratings, 1 to 4 = good to very good action
Method: as §4

Echinocloa (Ech) = assay: as above; parameters: key: 1=total damage; 9=no action; conditions: 250 g of active ingredient/ha; 3- to 6-leaf stage; 3 weeks after application; scale of nine ratings, 1 to 4 = good to very good action
Method: as §4

Lolium (Lol) [18] = assay: as above; parameters: key: 1=total damage; 9=no action; conditions: 250 g of active ingredient/ha; 3- to 6-leaf stage; 3 weeks after application; scale of nine ratings, 1 to 4 = good to very good action
Method: as §4

Panicum (Pan) [19] = assay: as above; parameters: key: 1=total damage; 9=no action; conditions: 250 g of active ingredient/ha; 3- to 6-leaf stage; 3 weeks after application; scale of nine ratings, 1 to 4 = good to very good action
Method: as §4

Setaria (Set) [20] = assay: as above; parameters: key: 1=total damage; 9=no action; conditions: 250 g of active ingredient/ha; 3- to 6-leaf stage; 3 weeks after application; scale of nine ratings, 1 to 4 = good to very good action
Method: as §4

Sorghum (Sor) [21] = assay: as above; parameters: key: 1=total damage; 9=no action; conditions: 250 g of active ingredient/ha; 3- to 6-leaf stage; 3 weeks after application; scale of nine ratings, 1 to 4 = good to very good action
Method: as §4

Digitaria (Dig) [22] = assay: as above; conditions: 250 g of active ingredient/ha; 3- to 6-leaf stage; 3 weeks after application; scale of nine ratings, 1 to 4 = good to very good action
Method: as §4

Row | Structure (SMILES) | Post-emergence action, rating, Ave (Avena (Ave) [1]) | Post-emergence action, rating, Lol (Lolium (Lol) [2]) | Post-emergence action, rating, Set (Setaria (Set) [3]) | further results
1 | CCc1cc(C)cc(CC)c1-c1c(OC(=O)C(C)(C)C)n2n(c1=O)CC(OC)C(OC)C2 (stereo not drawn) [1.08] | 1 | 1 | 1 | 
2 | CCc1cc(C)cc(CC)c1-c1c(O)n2n(c1=O)CC(O)C(Cl)C2 (stereo not drawn) [1.10] | 1 | 1 | 1 | 
3 | CCc1cc(C)cc(CC)c1-c1c(O)n2n(c1=O)CC(OCC(C)C)CC2 (stereo not drawn) [1.11] | 1 | 1 | 1 | 
4 | CCc1cc(C)cc(CC)c1-c1c(O)n2n(c1=O)CC(OC(C)C)CC2 (stereo not drawn) [1.14] | 1 | 2 | 2 | 
5 | CCc1cc(C)cc(CC)c1-c1c(O)n2n(c1=O)CC(OCCOC)CC2 (stereo not drawn) [1.15] | 1 | 2 | 1 | 
6 | CCc1cc(C)cc(CC)c1-c1c(O)n2n(c1=O)CC(OCCO)CC2 (stereo not drawn) [1.17] | 1 | 1 | 2 | 
7 | CCc1cc(C)cc(CC)c1-c1c(O)n2n(c1=O)CC(OCC(=O)O)CC2 (stereo not drawn) [1.19] | 1 | 1 | 1 | 
8 | CCc1cc(C)cc(CC)c1-c1c(O)n2n(c1=O)CC(OCC(=O)OC)CC2 (stereo not drawn) [1.23] | 1 | 1 | 1 | 
9 | CCc1cc(C)cc(CC)c1-c1c(O)n2n(c1=O)CC(OC(C)C(=O)OC)CC2 (stereo not drawn) [1.26] | 1 | 2 | 1 | 
10 | CCc1cc(C)cc(CC)c1-c1c(O)n2n(c1=O)CC1OC3(CCCCC3)OC1C2 (stereo not drawn) [1.27] | 1 | 1 | 2 | 
11 | CCc1cc(C)cc(CC)c1-c1c(O)n2n(c1=O)CC(=NOC)CC2 [1.30] | 1 | 1 | 1 | 
12 | CCc1cc(C)cc(CC)c1-c1c(O)n2n(c1=O)CC(OCCOCCOC)C(O)C2 (stereo not drawn) [1.35] | 1 | 1 | 1 | Pre-emergence action, rating, Ave (Avena (Ave) [4]): 1; Pre-emergence action, rating, Lol (Lolium (Lol) [5]): 1; Pre-emergence action, rating, Set (Setaria (Set) [6]): 1
13 | CCc1cc(C)cc(CC)c1-c1c(O)n2n(c1=O)CC(O)C(O)C2 (stereo not drawn) [1.39] | 1 | 1 | 1 | 
14 | CCc1cc(C)cc(CC)c1-c1c(OC(=O)C(C)(C)C)n2n(c1=O)CC(O)C(O)C2 (stereo not drawn) [1.40] | 1 | 1 | 2 | 
15 | CCc1cc(C)cc(CC)c1-c1c(OC(=O)C(C)(C)C)n2n(c1=O)CCC(F)(F)CC2 [1.43] | 1 | 2 | 2 | 
16 | Cc1cc(C)c(-c2c(OC(=O)C(C)(C)C)n3n(c2=O)CCCC3)c(C)c1 [compound A, reference compound] |  |  |  | Pre-emergence action rating, Alo (Alopecurus (Alo) [7]): 2; Pre-emergence action, rating, Ave (Avena (Ave) [8]): 4; Pre-emergence action rating, Bra (Brachiaria (Bra) [9]): 3; Pre-emergence action rating, Ech (Echinochloa (Ech)): 5; Pre-emergence action, rating, Lol (Lolium (Lol) [10]): 1; Pre-emergence action rating, Pan (Panicum (Pan) [11]): 1; Pre-emergence action, rating, Set (Setaria (Set) [12]): 2; Pre-emergence action rating, Sor (Sorghum (Sor) [13]): 4; Pre-emergence action rating, Dig (Digitaria (Dig) [14]): 4; Post-emergence action rating, Alo (Alopecurus (Alo) [15]): 3; Post-emergence action, rating, Ave (Avena (Ave) [16]): 3; Post-emergence action rating, Bra (Brachiaria (Bra) [17]): 2; Post-emergence action rating, Ech (Echinocloa (Ech)): 1; Post-emergence action, rating, Lol (Lolium (Lol) [18]): 2; Post-emergence action rating, Pan (Panicum (Pan) [19]): 1; Post-emergence action, rating, Set (Setaria (Set) [20]): 2; Post-emergence action rating, Sor (Sorghum (Sor) [21]): 3; Post-emergence action rating, Dig (Digitaria (Dig) [22]): 2
